Reference: patent US20250243160A1, “INDOLE DERIVATIVES FOR TARGETING AUTOPHAGY” (Automera PTE. LTD, priority 2024, published 2025)

Tested on: p62 puncta
Assay: p62 puncta immunocytochemistry imaging in HeLa cells
Assay type: cell-based
Conditions: 24 hours treatment, relative to vehicle control (DMSO)
Description: HeLa cells were seeded in coated 96-well plates (10,000 cells) and allowed to adhere overnight. After 24 hours of treatment with either vehicle (DMSO) or test compounds, the media was discarded, and cells were rinsed with ice-cold 1×PBS before fixation by 4% formaldehyde or paraformaldehyde for 20 min. Cells were then washed with 1×PBS and permeabilized with 0.1% Triton X-100 in PBS for 20 min and blocked with Blocking Buffer in PBS for 1 hour. The cells were incubated thereafter for 1 hour with anti-p62 primary antibody in Blocking Buffer, followed by incubation with secondary antibody for 1 hour. DAPI dye was used to visualize nuclei of fixed cells. The blocking buffer used were 5% Fetal Bovine Serum (FBS, ThermoFIsher Scientific, 10270106) and Li-cor Intercept (PBS) Blocking Buffer (Li-cor, 927-70001). The primary antibody used was mouse anti-p62 primary antibody (Novus Biologicals, H00008878-M01). The secondary antibodies used were goat anti-mouse Alexa Fluor Plus 488 secondary antibody (Invitrogen, GOXMS) and goat anti-mouse Alexa Fluor 488 secondary antibody (Invitrogen, A-11029). The DAPI dyes used were DAPI dye (Invitrogen, 62248) and DAPI dye (Invitrogen, D1306).
For the EVOS M7000 System, cells were imaged on the EVOS M7000 microscope using a 20× air objective (Nikon, N.A 0.45). DAPI and p62 channels were illuminated with LED light cubes using integrated hard-coated filter sets for DAPI (357/447 nm) and GFP (470/525 nm) respectively. Images were analysed for p62 puncta count on the Celeste 6.0 software.
For the Operetta CLS System, cells were imaged on the Operetta CLS using a 63× water objective on the DAPI and Alexa 488 channels. Images were analysed for p62 puncta count on the Harmony 5.1 software.
HeLa cells were treated with compounds for 24 hours to evaluate the effect of these compounds on p62 puncta activity. The resulting changes in levels of p62 puncta were assessed by imaging, either on the EVOS M7000 or Operetta CLS systems as described in experimental procedures. The fold change of p62 puncta levels induced by compound treatment relative to vehicle control (DMSO) was determined and summarized in Table 10.

## CC(C)(C)OC(=O)N1CCC(OCCOCCNCc2cc(F)cc3c2ccn3Cc2ccc(Cl)cc2)CC1 [Compound 93]
  p62 puncta (fold change of p62 puncta levels): ++ (>2-fold change in p62 puncta levels relative to DMSO control)

## OCCNCc1cc2ccn(Cc3ccc(F)cc3)c2cc1F [Compound 112, 2-(((6-fluoro-1-(4-fluorobenzyl)-1H-indol-5-yl)methyl)amino)ethan-1-ol]
  p62 puncta (fold change of p62 puncta levels): ++ (>2-fold change in p62 puncta levels relative to DMSO control)

## CC(C)(C)OC(=O)NCCOCCOCCNCc1cc(F)cc2c1ccn2Cc1ccc(Cl)cc1 [Compound 135]
  p62 puncta (fold change of p62 puncta levels): ++ (>2-fold change in p62 puncta levels relative to DMSO control)

## Fc1cc(CNCCOCCCCl)c2ccn(Cc3ccc(Cl)cc3)c2c1 [Compound 146]
  p62 puncta (fold change of p62 puncta levels): ++ (>2-fold change in p62 puncta levels relative to DMSO control)

## CNCCOCCOCCNCc1cc(F)cc2c1ccn2Cc1ccc(Cl)cc1 [Compound 89]
  p62 puncta (fold change of p62 puncta levels): ++ (>2-fold change in p62 puncta levels relative to DMSO control)

## COCCNCc1cc(F)cc2c1ccn2Cc1ccc(Cl)cc1 [Compound 108]
  p62 puncta (fold change of p62 puncta levels): ++ (>2-fold change in p62 puncta levels relative to DMSO control)

## CC(C)(C)OC(=O)N1CCC(OCCNCc2cc(F)cc3c2ccn3Cc2ccc(Cl)cc2)C1 (centres unmarked) [Compound 166]
  p62 puncta (fold change of p62 puncta levels): ++ (>2-fold change in p62 puncta levels relative to DMSO control)

## CC(C)(C)OC(=O)Nc1cccc(COCCNCc2cc(F)cc3c2ccn3Cc2ccc(Cl)cc2)c1 [Compound 162]
  p62 puncta (fold change of p62 puncta levels): ++ (>2-fold change in p62 puncta levels relative to DMSO control)

## C#CCCOCCNCc1cc(F)cc2c1ccn2Cc1ccc(F)cc1 [Compound 125]
  p62 puncta (fold change of p62 puncta levels): + (<2-fold change in p62 puncta levels relative to DMSO control)

## CC(C)(C)OC(=O)N1CCC(CCOCCNCc2cc(F)cc3c2ccn3Cc2ccc(Cl)cc2)CC1 [Compound 161]
  p62 puncta (fold change of p62 puncta levels): ++ (>2-fold change in p62 puncta levels relative to DMSO control)

## C#CCCOCCOCCOCCNCc1cc(F)cc2c1ccn2Cc1ccc(Cl)cc1 [Compound 87, 2-(2-(2-(but-3-yn-1-yloxy)ethoxy)ethoxy)-N-((1-(4-chlorobenzyl)-6-fluoro-1H-indol-4-yl)methyl)ethan-1-amine]
  p62 puncta (fold change of p62 puncta levels): ++ (>2-fold change in p62 puncta levels relative to DMSO control)

## CC(C)(C)OC(=O)CCCOCCNCc1cc(F)cc2c1ccn2Cc1ccc(Cl)cc1 [Compound 154]
  p62 puncta (fold change of p62 puncta levels): ++ (>2-fold change in p62 puncta levels relative to DMSO control)

## C#CCCOCCOCCNCc1cc(F)cc2c1ccn2Cc1ccc(Cl)cc1 [Compound 86]
  p62 puncta (fold change of p62 puncta levels): ++ (>2-fold change in p62 puncta levels relative to DMSO control)

## CC(C)(C)OC(=O)NCCCCCCOCCNCc1cc(F)cc2c1ccn2Cc1ccc(Cl)cc1 [Compound 159]
  p62 puncta (fold change of p62 puncta levels): ++ (>2-fold change in p62 puncta levels relative to DMSO control)

## CC(C)(C)OC(=O)NC1(COCCNCc2cc(F)cc3c2ccn3Cc2ccc(Cl)cc2)CC1 [Compound 165]
  p62 puncta (fold change of p62 puncta levels): ++ (>2-fold change in p62 puncta levels relative to DMSO control)

## COC1CCN(CCOCCNCc2cc(F)cc3c2ccn3Cc2ccc(Cl)cc2)CC1 [Compound 129]
  p62 puncta (fold change of p62 puncta levels): ++ (>2-fold change in p62 puncta levels relative to DMSO control)

## C#CCCN1CCN(CCOCCNCc2cc(F)cc3c2ccn3Cc2ccc(Cl)cc2)CC1 [Compound 121]
  p62 puncta (fold change of p62 puncta levels): ++ (>2-fold change in p62 puncta levels relative to DMSO control)

## CC(C)(C)OC(=O)NCCCOCCNCc1cc(F)cc2c1ccn2Cc1ccc(Cl)cc1 [Compound 163]
  p62 puncta (fold change of p62 puncta levels): ++ (>2-fold change in p62 puncta levels relative to DMSO control)

## CC(C)(C)OC(=O)N1CCN(CCOCCNCc2cc(F)cc3c2ccn3Cc2ccc(Cl)cc2)CC1 [Compound 156]
  p62 puncta (fold change of p62 puncta levels): ++ (>2-fold change in p62 puncta levels relative to DMSO control)

## CC(C)(C)OC(=O)NC1CCN(CCOCCNCc2cc(F)cc3c2ccn3Cc2ccc(Cl)cc2)CC1 [Compound 127]
  p62 puncta (fold change of p62 puncta levels): ++ (>2-fold change in p62 puncta levels relative to DMSO control)

## CC(C)(C)OC(=O)CCOCCNCc1cc(F)cc2c1ccn2Cc1ccc(Cl)cc1 [Compound 142]
  p62 puncta (fold change of p62 puncta levels): + (<2-fold change in p62 puncta levels relative to DMSO control)

## CNCCOCCOCCOCCNCc1cc(F)cc2c1ccn2Cc1ccc(Cl)cc1 [Compound 90]
  p62 puncta (fold change of p62 puncta levels): ++ (>2-fold change in p62 puncta levels relative to DMSO control)

## CC(C)(C)OC(=O)CCCCOCCNCc1cc(F)cc2c1ccn2Cc1ccc(Cl)cc1 [Compound 147]
  p62 puncta (fold change of p62 puncta levels): + (<2-fold change in p62 puncta levels relative to DMSO control)

## C#CCOCCOCCNCc1cc(F)cc2c1ccn2Cc1ccc(Cl)cc1 [Compound 140]
  p62 puncta (fold change of p62 puncta levels): ++ (>2-fold change in p62 puncta levels relative to DMSO control)

## CC(C)(C)OC(=O)NCCOCCOCCOCCNCc1cc(F)cc2c1ccn2Cc1ccc(Cl)cc1 [Compound 136]
  p62 puncta (fold change of p62 puncta levels): ++ (>2-fold change in p62 puncta levels relative to DMSO control)

## CC(C)(C)OC(=O)NCCCCCOCCNCc1cc(F)cc2c1ccn2Cc1ccc(Cl)cc1 [Compound 157]
  p62 puncta (fold change of p62 puncta levels): ++ (>2-fold change in p62 puncta levels relative to DMSO control)

## C#CCOCCOCCOCCNCc1cc(F)cc2c1ccn2Cc1ccc(Cl)cc1 [Compound 137]
  p62 puncta (fold change of p62 puncta levels): ++ (>2-fold change in p62 puncta levels relative to DMSO control)

## CNCCOCc1cccc2c1ccn2Cc1ccc(F)cc1 [Compound 77]
  p62 puncta (fold change of p62 puncta levels): ++ (>2-fold change in p62 puncta levels relative to DMSO control)

## Fc1cc(CNCCOCCOCCOCCCOc2ccccc2)c2ccn(Cc3ccc(Cl)cc3)c2c1 [Compound 94]
  p62 puncta (fold change of p62 puncta levels): ++ (>2-fold change in p62 puncta levels relative to DMSO control)

## COCCN1CCC(OCCNCc2cc(F)cc3c2ccn3Cc2ccc(Cl)cc2)CC1 [Compound 130]
  p62 puncta (fold change of p62 puncta levels): ++ (>2-fold change in p62 puncta levels relative to DMSO control)

## CC(C)(C)OC(=O)CCCCCCCCOCCNCc1cc(F)cc2c1ccn2Cc1ccc(Cl)cc1 [Compound 149]
  p62 puncta (fold change of p62 puncta levels): + (<2-fold change in p62 puncta levels relative to DMSO control)

## C#CCCOCCOCCOCCNCc1ccc(Cl)c2c1ccn2Cc1ccccc1 [Compound 122]
  p62 puncta (fold change of p62 puncta levels): ++ (>2-fold change in p62 puncta levels relative to DMSO control)

## OCCNCc1ccnc2c1ccn2Cc1ccc(Cl)cc1 [Compound 111]
  p62 puncta (fold change of p62 puncta levels): + (<2-fold change in p62 puncta levels relative to DMSO control)

## CC(C)(C)OC(=O)N[C@H]1CC[C@@H](COCCNCc2cc(F)cc3c2ccn3Cc2ccc(Cl)cc2)CC1 [Compound 176]
  p62 puncta (fold change of p62 puncta levels): ++ (>2-fold change in p62 puncta levels relative to DMSO control)

## CCOC(=O)C1CCN(C(=O)COCCNCc2cc(F)cc3c2ccn3Cc2ccc(Cl)cc2)CC1 [Compound 152]
  p62 puncta (fold change of p62 puncta levels): + (<2-fold change in p62 puncta levels relative to DMSO control)

## COC(=O)CCOCCOCCNCc1cc(F)cc2c1ccn2Cc1ccc(Cl)cc1 [Compound 88]
  p62 puncta (fold change of p62 puncta levels): + (<2-fold change in p62 puncta levels relative to DMSO control)

## OCCNCc1cncc2c1ccn2Cc1ccc(Cl)cc1 [Compound 110, 2-(((1-(4-chlorobenzyl)-1H-pyrrolo[2,3-c]pyridin-4-yl)methyl)amino)ethan-1-ol]
  p62 puncta (fold change of p62 puncta levels): ++ (>2-fold change in p62 puncta levels relative to DMSO control)

## C#CCCOCCOCCOCCNCc1cc(F)cc2c1ccn2Cc1ccc(F)cc1 [Compound 123]
  p62 puncta (fold change of p62 puncta levels): ++ (>2-fold change in p62 puncta levels relative to DMSO control)

## CC(C)NCC(O)COc1ccc2c(ccn2Cc2ccccc2)c1 (centres unmarked) [Compound 39]
  p62 puncta (fold change of p62 puncta levels): ++ (>2-fold change in p62 puncta levels relative to DMSO control)

## COC(=O)C1(COCCNCc2cc(F)cc3c2ccn3Cc2ccc(Cl)cc2)COC1 [Compound 155]
  p62 puncta (fold change of p62 puncta levels): + (<2-fold change in p62 puncta levels relative to DMSO control)

## CC(C)(C)OC(=O)NCC1CC(COCCNCc2cc(F)cc3c2ccn3Cc2ccc(Cl)cc2)C1 (centres unmarked) [Compound 172]
  p62 puncta (fold change of p62 puncta levels): ++ (>2-fold change in p62 puncta levels relative to DMSO control)

## CC(C)(C)OC(=O)N1CC(COCCNCc2cc(F)cc3c2ccn3Cc2ccc(Cl)cc2)C1 [Compound 164]
  p62 puncta (fold change of p62 puncta levels): ++ (>2-fold change in p62 puncta levels relative to DMSO control)

## COC(=O)c1cccc(COCCNCc2cc(F)cc3c2ccn3Cc2ccc(Cl)cc2)c1 [Compound 145]
  p62 puncta (fold change of p62 puncta levels): + (<2-fold change in p62 puncta levels relative to DMSO control)

## C#CCCN1CCC(COCCNCc2cc(F)cc3c2ccn3Cc2ccc(Cl)cc2)CC1 [Compound 120]
  p62 puncta (fold change of p62 puncta levels): ++ (>2-fold change in p62 puncta levels relative to DMSO control)
